Results published in publication PMC9127186, “Molecular Basis Underlying Hepatobiliary and Renal Excretion of Phenolic Acids of Salvia miltiorrhiza Roots (Danshen)” (Frontiers in Pharmacology, 2022).

What was measured:
human OAT2 = target: T1, human OAT2 (Homo sapiens, UniProt Q9Y694); experiment: Cellular transport assay, HEK-293 cells expressing human OAT2; conditions: for TransportTC/TransportMC ratio (net transport ratio): 10 min; for K m: human hepatic sinusoidal uptake OAT2 (also renal basolateral), 5 min incubation, concentrations in Table 1
T1 sequence (Q9Y694 1-546 isoform Q9Y694-2): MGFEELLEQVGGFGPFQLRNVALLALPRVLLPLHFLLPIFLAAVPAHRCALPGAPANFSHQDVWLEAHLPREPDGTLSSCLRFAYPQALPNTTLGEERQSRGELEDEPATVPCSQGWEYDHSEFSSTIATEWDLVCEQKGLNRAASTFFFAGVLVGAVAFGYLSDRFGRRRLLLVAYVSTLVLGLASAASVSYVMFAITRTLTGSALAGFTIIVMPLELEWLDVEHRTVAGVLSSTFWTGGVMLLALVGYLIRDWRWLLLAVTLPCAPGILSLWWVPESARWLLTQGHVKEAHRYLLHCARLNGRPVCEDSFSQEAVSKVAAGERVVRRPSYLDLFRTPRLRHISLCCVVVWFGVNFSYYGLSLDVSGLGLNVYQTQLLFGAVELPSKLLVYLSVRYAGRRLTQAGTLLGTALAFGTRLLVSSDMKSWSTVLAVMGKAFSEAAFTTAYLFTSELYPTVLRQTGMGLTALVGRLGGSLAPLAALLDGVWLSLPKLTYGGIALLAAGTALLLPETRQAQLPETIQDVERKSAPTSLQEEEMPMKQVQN
Method in brief: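 First, HEK-293 cells received either the expression plasmid or empty vector by lipofection; 48 h later they were incubated with test compound for 5 min.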

rat Oat3 = target: T2, rat Oat3 (Rattus norvegicus, UniProt Q9R1U7); experiment: Cellular transport assay, HEK-293 cells expressing rat Oat3; conditions: for TransportTC/TransportMC ratio (net transport ratio): 10 min; for K m: rat renal basolateral uptake Oat3, 5 min incubation, concentrations in Table 1
T2 sequence (Q9R1U7 1-536): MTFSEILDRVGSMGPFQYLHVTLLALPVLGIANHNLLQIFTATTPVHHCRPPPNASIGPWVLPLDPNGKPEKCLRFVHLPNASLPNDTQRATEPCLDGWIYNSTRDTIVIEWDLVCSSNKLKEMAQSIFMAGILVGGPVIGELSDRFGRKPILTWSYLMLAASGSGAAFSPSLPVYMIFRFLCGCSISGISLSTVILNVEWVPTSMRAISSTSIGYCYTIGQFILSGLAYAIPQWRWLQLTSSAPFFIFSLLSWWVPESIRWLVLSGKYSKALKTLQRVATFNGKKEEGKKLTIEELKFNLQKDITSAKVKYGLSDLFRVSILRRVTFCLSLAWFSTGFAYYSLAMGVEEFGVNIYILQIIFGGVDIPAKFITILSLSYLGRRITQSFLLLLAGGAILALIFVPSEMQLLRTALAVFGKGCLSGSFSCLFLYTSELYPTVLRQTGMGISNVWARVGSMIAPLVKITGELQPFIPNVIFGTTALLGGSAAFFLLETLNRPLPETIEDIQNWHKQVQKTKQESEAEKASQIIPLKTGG

[1] = Danshen phenolic acid at 100 μM final concentration, human OAT2-transfected vs mock cells
[2] = Danshen phenolic acid at 100 μM final concentration, rat Oat3-transfected vs mock cells

Molecule	TransportTC/TransportMC ratio (net transport ratio) (human OAT2; [1])	TransportTC/TransportMC ratio (net transport ratio) (rat Oat3; [2])	substrate of human OAT2 (human OAT2)	microsomal CLint (human OAT2; human) [µL/min/mg]	K m (human OAT2)	microsomal CLint (rat Oat3; rat) [µL/min/mg]	K m (rat Oat3)	TransportTC/TransportMC ratio (net transport ratio) (human OAT2; human, 100 μM)	microsomal CLint (human OAT2; human, other cell line) [µL/min/mg]	substrate of rat Oat3 (rat Oat3)	TransportTC/TransportMC ratio (net transport ratio) (rat Oat3; rat, 100 μM)	microsomal CLint (rat Oat3; rat, other cell line) [µL/min/mg]
O=C(/C=C/c1ccc(O)c2c1[C@H](C(=O)O)[C@@H](c1ccc(O)c(O)c1)O2)O[C@H](Cc1ccc(O)c(O)c1)C(=O)O [Lithospermic acid, lithospermic acid]	1.51 ± 0.27	0.94 ± 0.23										
O=C(O)c1ccc(O)c(O)c1 [Protocatechuic acid, protocatechuic acid]	417 ± 23	16.1 ± 2.8	substrates	20.7	185 ± 24 µM	0.57	117 ± 27 µM					
O=C(/C=C/c1ccc(O)c(O)c1)O[C@H](Cc1ccc(O)c(O)c1)C(=O)O [Rosmarinic acid, rosmarinic acid]			substrates		48.6 ± 4.2 µM		24.0 ± 4.2 µM	716 ± 86	19.1	substrates	4.45 ± 1.12	0.15
O=C(/C=C/c1ccc(O)c(O)c1/C=C/c1ccc(O)c(O)c1)O[C@H](Cc1ccc(O)c(O)c1)C(=O)O [Salvianolic acid A, salvianolic acid A]			not a substrate					2.25 ± 0.47		not substrates	1.09 ± 0.35	
O=C(O)Cc1c(/C=C/C(=O)O[C@H](Cc2ccc(O)c(O)c2)C(=O)O)ccc(O)c1O [Salvianolic acid D, salvianolic acid D]	314 ± 44	1.41 ± 0.36	substrates	24.3	111 ± 13 µM					not of rat Oat3		
O=C(O)C(O)Cc1ccc(O)c(O)c1 (centres unmarked) [Tanshinol, tanshinol]					1,228 ± 160 μM		3,760 ± 907 μM					0.07
salvianolic acid B	1.04 ± 0.09	1.12 ± 0.41										
